The record followed here is patent publication US6992089B2, “Nitro and amino substituted topoisomerase agents” (Rutgers, The University of New Jersey, priority 2002, dated 2006).

Where two headings read alike, the source gives them in different places.

In one series the target is T1, human topoisomerase I (Homo sapiens, UniProt P11387).
T1 construct: unnamed fusion partner (recombinant fusion protein, T7 expression system); made in house; host or cells: E. coli
T1 sequence (P11387 1-765): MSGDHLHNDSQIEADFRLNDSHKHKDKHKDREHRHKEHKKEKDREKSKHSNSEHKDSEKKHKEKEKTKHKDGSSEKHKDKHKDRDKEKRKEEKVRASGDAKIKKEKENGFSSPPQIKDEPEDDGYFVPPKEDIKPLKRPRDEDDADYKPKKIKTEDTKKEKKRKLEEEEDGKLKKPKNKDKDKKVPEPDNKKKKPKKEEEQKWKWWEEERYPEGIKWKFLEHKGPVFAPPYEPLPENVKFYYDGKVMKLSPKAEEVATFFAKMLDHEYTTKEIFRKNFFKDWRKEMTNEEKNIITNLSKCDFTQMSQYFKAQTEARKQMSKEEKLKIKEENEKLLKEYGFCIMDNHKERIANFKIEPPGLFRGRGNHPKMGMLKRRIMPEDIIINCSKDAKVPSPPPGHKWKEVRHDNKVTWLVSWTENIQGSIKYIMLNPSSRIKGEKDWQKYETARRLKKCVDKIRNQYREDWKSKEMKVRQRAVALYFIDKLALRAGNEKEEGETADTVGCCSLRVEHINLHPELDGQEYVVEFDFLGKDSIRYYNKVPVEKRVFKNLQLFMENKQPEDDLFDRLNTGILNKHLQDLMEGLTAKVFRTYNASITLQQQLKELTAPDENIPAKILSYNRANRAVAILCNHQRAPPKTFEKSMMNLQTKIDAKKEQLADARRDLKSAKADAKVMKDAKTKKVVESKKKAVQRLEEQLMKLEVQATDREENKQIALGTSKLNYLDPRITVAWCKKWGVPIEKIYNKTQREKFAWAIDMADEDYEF
The series can be described thus: Test A: topoisomerase I-mediated DNA cleavage assay. It counts as biochemical. The following applies: concentration relative to topotecan (=1) producing the same cleavage on plasmid DNA in presence of human TOP1. An excerpt: Test A. Topoisomerase-Mediated DNA Cleavage Assays
Human topoisomerase I was expressed in E. Coli and isolated as a recombinant fusion protein using a T7 expression system as described by Gatto, B., et al., Cancer Res. 1996, 56, 2795-2800. Plasmid YepG was purified by the alkali lysis method followed by phenol deproteination and CsCl/ethidium isopycnic centrifugation method as described by Maniatis, T., et al., J. Molecular Cloning, a Laboratory Manual; Cold Spring Harbor Laboratory: Cold Spring Harbor, N.Y. 1982; pp 149-185. The end-labeling of the plasmid was accomplished by digestion with a restriction enzyme followed by end-filling with Klenow polymerase as previously described by Tewey, K. M., et al., Science 1984, 226, 466-468. The cleavage assays were performed as previously reported (see Gatto, B., et al., Cancer Res. 1996, 56, 2795-2800; and Wang, H., et al., Biochemistry 2001, 40; 3316-3323). The drug and the DNA in presence of topoisomerase I was incubated for 30 minutes at 37° C. The reactions were terminated by the addition of 5 μl of 5% SDS and 1 mg/ml […] with an additional 1 hour of incubation at 37° C. Samples were then alkali denatured by the addition of NaOH, EDTA, sucrose, and bromophenol blue to final concentrations of 75 mM, 2.5%, and 0.05 mg/ml, respectively, prior to loading onto a neutral agarose gel. After development of the gels, typically 24-hour exposure was used to obtain autoradiograms outlining the extent of DNA fragmentation.

Another series deals with RPMI 8402. The series can be described thus: Test B: MTT-microtiter plate tetrazolinium cytotoxicity assay, RPMI 8402. Format: cell-based. The conditions noted are these: Homo sapiens, RPMI 8402, 96 h, read-out: Cytotoxicity IC50 RPMI 8402. Here is the method: (§1) The cytotoxicity was determined using the MTT-microtiter plate tetrazolinium cytotoxicity assay (MTA—See Mosmann, T., J. Immunol. Methods 1983, 65, 55-63; Carmichael, J., et al., Cancer Res. 1987, 47, 936-942; and Denizot, F., et al., J. Immunol. Methods 1986, 89, 271-277). […] The cytotoxicity assay was performed using 96-well microtiter plates. Cells were grown in suspension at 37° C. in 5% CO2 and maintained by regular passage in RPMI medium supplemented with 10% heat-inactivated fetal bovine serum, L-glutamine (2 mM), penicillin (100 U/mL), and streptomycin (0.1 mg/mL). […] For determination of IC50, cells were exposed continuously for 4 days to varying concentrations of drug, and MTT assays were performed at the end of the fourth day. […] All assays were performed at least twice in 6 replicate wells.

The test system of the next series is CPT-K5. The series can be described thus: Test B: MTT-microtiter plate tetrazolinium cytotoxicity assay, CPT-K5 (camptothecin-resistant variant). It counts as cell-based. The following applies: Homo sapiens, CPT-K5, 96 h, read-out: Cytotoxicity IC50 CPT-K5. Here is the method:
as §1

The next series deals with P388. The series can be described thus: MTT cytotoxicity assay, P388. Format: cell-based. The conditions noted are these: Mus musculus, P388, 96 h, read-out: Cytotoxicity IC50 P388. The protocol: as §1
On the technique in general: Tetrazolium dyes change colour on reduction, which living cells bring about.

In a further series the test system is P388/CPT45. Kind of series: MTT cytotoxicity assay, P388/CPT45. It counts as cell-based. The following applies: Mus musculus, P388CPT45, 96 h, read-out: Cytotoxicity IC50 P388/CPT45. The protocol: as §1

In general, melting point refers to the temperature, or range, at which the solid turns liquid.

Regarding `COc1cc2c(=O)n(CCN(C)C)c3c4cc(N)ccc4ncc3c2cc1OC` [Compound 4c, 3-Amino-8,9-dimethoxy-5-[2-(N,N-dimethylamino)ethyl]-5H-dibenzo[c,h][1,6]naphthyridin-6-one], the melting point lay within 213 to 215 °C. Besides, the “TOP1-mediated DNA Cleavage (REC, relative effective concentration)” value on human topoisomerase I amounted to 6. Also, in the series with RPMI 8402, the IC50 was 0.04 µM. Also, the IC50 in the series on CPT-K5 turned out to be 1.35 µM. In the series on P388, the IC50 is 0.02 µM. Also, in the series on P388/CPT45, the IC50 was 0.33 µM.

For the compound `COc1cc([C@@H]2c3cc4c(cc3[C@@H](O[C@@H]3O[C@@H]5CO[C@@H](c6cccs6)O[C@H]5[C@H](O)[C@H]3O)[C@H]3COC(=O)[C@H]23)OCO4)cc(OC)c1O` [VM-26, teniposide, reference compound], the IC50 in the series on CPT-K5 amounted to 0.28 µM.

In the case of `COc1cc2c(=O)n(CCN(C)C)c3c4ccc([N+](=O)[O-])cc4ncc3c2cc1OC` [Compound 3b, 8,9-Dimethoxy-2-nitro-5-[2-(N,N-dimethylamino)ethyl]-5H-dibenzo[c,h][1,6]naphthyridin-6-one], the melting point lay in the range of 214 to 217 °C. The “TOP1-mediated DNA Cleavage (REC, relative effective concentration)” value at human topoisomerase I is on record as 6. Further, in the series on RPMI 8402, the IC50 worked out at 0.075 µM. Also, in the series with CPT-K5, the IC50 amounted to 3.35 µM. Besides, the IC50 in the series with P388 came to 0.03 µM. Besides, in the series on P388/CPT45, the IC50 was found to be 0.34 µM.

The compound `COc1cc2c(=O)n(CCN(C)C)c3c4cccc([N+](=O)[O-])c4ncc3c2cc1OC` [Compound 3a, 8,9-Dimethoxy-1-nitro-5-[2-(N,N-dimethylamino)ethyl]-5H-dibenzo[c,h][1,6]naphthyridin-6-one] showed a melting point of 257 to 258 °C. In addition, on human topoisomerase I, the “TOP1-mediated DNA Cleavage (REC, relative effective concentration)” value was determined as 9. Moreover, the IC50 with RPMI 8402 worked out at 0.22 µM. In the series with CPT-K5, the IC50 came to 3 µM. Further, the IC50 in the series with P388 came out at 0.19 µM. Moreover, in the series with P388/CPT45, the IC50 came to 2.1 µM.

Regarding `COc1cc2c(=O)n(CCN(C)C)c3c(cnc4cccc([N+](=O)[O-])c43)c2cc1OC` [Compound 3d, 8,9-Dimethoxy-4-nitro-5-[2-(N,N-dimethylamino)ethyl]-5H-dibenzo[c,h][1,6]-naphthyridin-6-one], the melting point fell in the range of 194 to 195 °C. The “TOP1-mediated DNA Cleavage (REC, relative effective concentration)” value on human topoisomerase I is reported as more than 300. Moreover, the IC50 in the series with RPMI 8402 came out at 5.5 µM. The IC50 in the series with CPT-K5 worked out at 11.5 µM. Moreover, the IC50 in the series with P388 amounted to 6 µM. The IC50 in the series with P388/CPT45 came out at 7 µM.

With `COc1cc2c(=O)n(CCN(C)C)c3c4cc([N+](=O)[O-])ccc4nnc3c2cc1OC` [Compound 12a, 11-(2-Dimethylaminoethyl)-2,3-dimethoxy-9-nitro-11H-5,6,11-triazachrysen-12-one], the melting point is 262 to 264 °C (dec.). Also, the IC50 in the series on RPMI 8402 was 0.003 µM. For the same compound, the IC50 in the series with CPT-K5 was 3.3 µM.

In the case of `CC[C@@]1(O)C(=O)OCc2c1cc1n(c2=O)Cc2cc3c(CN(C)C)c(O)ccc3nc2-1` [Topotecan, reference compound], the “TOP1-mediated DNA Cleavage (REC, relative effective concentration)” value on human topoisomerase I was found to be 1. Also, the IC50 with CPT-K5 is more than 50 µM; in the series with P388, 0.035 µM; in the series on P388/CPT45 it was more than 10 µM.

As for `COc1cc2c(=O)n(CCN(C)C)c3c4ccccc4ncc3c2cc1OC` [Compound 5, 8,9-Dimethoxy-5-[2-(N,N-dimethylamino)ethyl]-5H-dibenzo[c,h]1,6-naphthyridin-6-one, reference compound], the “TOP1-mediated DNA Cleavage (REC, relative effective concentration)” value on human topoisomerase I is recorded as 10. Besides, the IC50 with RPMI 8402 was 0.1 µM; in the series with CPT-K5 it was 1.65 µM; in the series with P388, 0.07 µM; with P388/CPT45 it was 0.3 µM.

In turn, `COc1cc2c(=O)n(CCN(C)C)c3c4ccc(N)cc4ncc3c2cc1OC` [Compound 4b, 2-Amino-8,9-dimethoxy-5-[2-(N,N-dimethylamino)ethyl]-5H-dibenzo[c,h][1,6]naphthyridin-6-one] yielded a melting point of 208 to 210 °C. Besides, the “TOP1-mediated DNA Cleavage (REC, relative effective concentration)” value at human topoisomerase I came out at 12. Also, the IC50 in the series with RPMI 8402 stood at 0.1 µM. In addition, the IC50 in the series with CPT-K5 turned out to be 2.1 µM. For the same compound, the IC50 in the series with P388 amounted to 0.06 µM. In addition, the IC50 with P388/CPT45 amounted to 0.23 µM.

The compound `COc1cc2c(=O)n(CCN(C)C)c3c4cc([N+](=O)[O-])ccc4ncc3c2cc1OC` [Compound 3c, 8,9-Dimethoxy-3-nitro-5-[2-(N,N-dimethylamino)ethyl]-5H-dibenzo[c,h][1,6]naphthyridin-6-one] showed a melting point of 232 to 234 °C. Moreover, the “TOP1-mediated DNA Cleavage (REC, relative effective concentration)” value on human topoisomerase I was 2. Moreover, in the series with RPMI 8402, the IC50 came to 0.018 µM. Also, the IC50 in the series on CPT-K5 amounted to 0.8 µM. In addition, the IC50 in the series with P388 turned out to be 0.04 µM. Further, the IC50 with P388/CPT45 is 0.2 µM.

`COc1cc2c(=O)n(CCN(C)C)c3c4ccccc4nnc3c2cc1OC` [Compound 12b, 11-(2-Dimethylaminoethyl)-2,3-dimethoxy-11H-5,6,11-triazachrysen-12-one, reference compound]: the IC50 is 0.018 µM in the series with RPMI 8402 and 1.5 µM in the series on CPT-K5.

With `CC[C@@]1(O)C(=O)OCc2c1cc1n(c2=O)Cc2cc3ccccc3nc2-1` [CPT, Camptothecin, reference compound], the IC50 in the series with RPMI 8402 (4 days of continuous drug exposure, MTT) is 0.005 µM; with P388 (4 days of continuous drug exposure) it was 0.009 µM; in the series with P388/CPT45, more than 10 µM.

In turn, `COc1cc2c(=O)n(CCN(C)C)c3c4cccc(N)c4ncc3c2cc1OC` [Compound 4a, 1-Amino-8,9-dimethoxy-5-[2-(N,N-dimethylamino)ethyl]-5H-dibenzo[c,h][1,6]naphthyridin-6-one] came in with a melting point of 226 to 229 °C. Moreover, the “TOP1-mediated DNA Cleavage (REC, relative effective concentration)” value on human topoisomerase I is reported as 100. The IC50 in the series with RPMI 8402 turned out to be 0.65 µM. Besides, the IC50 in the series with CPT-K5 came to 2 µM. The IC50 with P388 amounted to 0.35 µM. Also, in the series on P388/CPT45, the IC50 came out at 0.21 µM.

As for `COc1cc2c(=O)n(CCN(C)C)c3c(cnc4cccc(N)c43)c2cc1OC` [Compound 4d, 4-Amino-8,9-dimethoxy-5-[2-(N,N-dimethylamino)ethyl]-5H-dibenzo[c,h][1,6]-naphthyridin-6-one], the melting point was 239 to 241 °C. Besides, the “TOP1-mediated DNA Cleavage (REC, relative effective concentration)” value at human topoisomerase I is given as more than 300. Besides, the IC50 with RPMI 8402 is 4 µM. Further, the IC50 in the series with CPT-K5 is 8 µM. Moreover, the IC50 in the series with P388 is 3 µM. The IC50 with P388/CPT45 worked out at 3.5 µM.
